Assay results as given in paper PMC5462828 (Scientific Reports, 2017).

Tests used:
RXFP1 [1] = target: T1, RXFP1 (Homo sapiens, UniProt Q9HBX9); assay: ERK1/2 phosphorylation (Surefire) in HEK-RXFP1 cells; format: cell-based; set-up: expressed in transfected cells; host or cells: HEK293T / HEK293 cells stably expressing RXFP1 (HEK-RXFP1); details: ML290 10 μM, 10 min pretreatment
T1 sequence (Q9HBX9 1-757): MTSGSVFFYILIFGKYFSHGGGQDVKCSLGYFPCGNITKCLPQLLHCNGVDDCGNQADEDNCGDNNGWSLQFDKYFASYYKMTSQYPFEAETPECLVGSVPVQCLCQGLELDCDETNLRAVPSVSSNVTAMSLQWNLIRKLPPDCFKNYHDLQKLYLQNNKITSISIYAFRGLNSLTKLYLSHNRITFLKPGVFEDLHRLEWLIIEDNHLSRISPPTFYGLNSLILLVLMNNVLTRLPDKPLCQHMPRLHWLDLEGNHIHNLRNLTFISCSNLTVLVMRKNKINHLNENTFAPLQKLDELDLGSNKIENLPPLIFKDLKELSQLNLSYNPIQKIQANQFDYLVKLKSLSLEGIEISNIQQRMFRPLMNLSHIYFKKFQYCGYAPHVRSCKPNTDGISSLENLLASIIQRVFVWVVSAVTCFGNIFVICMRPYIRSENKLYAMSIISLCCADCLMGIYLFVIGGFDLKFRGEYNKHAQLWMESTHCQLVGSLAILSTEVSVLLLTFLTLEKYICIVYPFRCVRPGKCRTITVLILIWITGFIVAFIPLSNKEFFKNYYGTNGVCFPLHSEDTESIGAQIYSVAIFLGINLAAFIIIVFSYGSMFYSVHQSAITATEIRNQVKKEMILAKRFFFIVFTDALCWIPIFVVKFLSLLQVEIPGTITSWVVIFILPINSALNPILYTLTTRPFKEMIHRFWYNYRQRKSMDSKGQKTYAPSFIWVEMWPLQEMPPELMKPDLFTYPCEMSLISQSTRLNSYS
Description: (§1) p-ERK1/2, p-p38MAPK and p-JNK1/2 was measured using the Surefire ERK, p38 and JNK kits (TGR BioSciences, Australia) as described previously, [16]. Briefly, HEK-RXFP1 cells were plated into 96-well plates (5 × 10^4 cells/well) and primary cells grown in 24-well plates (1 × 10^5 cells/well) overnight to achieve a confluent monolayer. Prior to stimulation, HEK293 cells were serum-starved with DMEM containing 0.5% (v/v) FBS and primary cells in M199 medium for 4–6 hours. […] Levels of p-ERK1/2, p-p38MAPK and p-JNK1/2/3 were detected as per manufacturer’s instructions (Perkin-Elmer, Australia).

RXFP3 = test system: RXFP3; set-up: method as in PMID 23764525; details: cited from earlier work
mouse RXFP1 = details: cited from earlier work
RXFP1 [2] = target: T1, RXFP1; assay: cAMP accumulation in HEK-RXFP1 cells; format: cell-based; set-up: expressed in transfected cells; host or cells: HEK293T / HEK293 cells stably expressing RXFP1 (HEK-RXFP1); details: read-out: cAMP accumulation efficacy (Emax)
Description: cAMP and cGMP accumulation was determined as previously described, [16]. Briefly, HEK293 cells were plated in 96-well plates (5 × 10^4 cells/well) and human primary cells were plated into 24-well plates (1 × 10^5 cells/well) and grown overnight to achieve a confluent monolayer. Prior to stimulation, HEK cells were serum-starved in DMEM containing 0.5% FBS v/v and primary cells were serum-starved in M199 medium for 4–6 hours. Where appropriate, cells were pre-incubated with mSIRK (5 μM, 30 min), mSIRK control peptide L9A (5 μM, 30 min), gallein (100 μM, 30 min), Wortmannin (100 nM, 30 min), NF023 (10 μM, 30 min) and NF449 (10 μM, 30 min). Levels of cAMP and cGMP were detected according to the manufacturer’s instructions (Perkin-Elmer, Australia).

pig RXFP1 = test system: pig RXFP1; set-up: method as in PMID 26866459; details: cited from earlier work
[3] = set-up: method as in PMID 23764525; details: cited from earlier work
p-Smad2 = assay: Smad2 phosphorylation assay in human cardiac fibroblasts; format: cell-based; details: 72 hours
Description: Cells were serum-starved in M199 medium for 24 hours prior sample collection. Cells were used between passages 1–4, while all experiments were performed four separate times in duplicate. Levels of p-Smad2 and p-Smad3 were detected using Sure-fire kits according to the manufacturer’s instructions (Perkin-Elmer, Australia).

RXFP1 [4] = target: T1, RXFP1; assay: p38MAPK phosphorylation (Surefire) in human primary vascular cells; format: cell-based; set-up: In human primary vascular endothelial and smooth muscle cells that endogenously express RXFP1; details: 15 min
Description: as §1

RXFP1 [5] = target: T1, RXFP1; assay: p38MAPK phosphorylation (Surefire) in HEK-RXFP1 cells; format: cell-based; set-up: expressed in transfected cells; host or cells: HEK293T / HEK293 cells stably expressing RXFP1 (HEK-RXFP1)
Description: as §1

LDLa mutant receptors = details: cited from earlier work

SMILES: CC(C)Oc1ccccc1C(=O)Nc1ccccc1C(=O)Nc1cccc(S(=O)(=O)C(F)(F)F)c1 [ML290, 2-Isopropoxy-N-(2-(3-(trifluoromethylsulfonyl)phenylcarbamoyl)phenyl) benzamide]
- effect of pretreatment on maximum p-ERK1/2 response to relaxin (RXFP1 [1]): significantly increased
- action at RXFP3 (RXFP3): little or no action
- action at mouse RXFP1 (mouse RXFP1): antagonist actions
- agonist action at the mouse orthologue of RXFP1 (mouse RXFP1): no agonist actions
- Emax (RXFP1 [2]): 113%
- agonist action at pig RXFP1 (pig RXFP1): activates
- T1/2 in heart ([3]; heart): 7.48 h
- tissue distribution ([3]; heart): concentrated in the heart
- plasma half-life ([3]; mice): 8.56 h
- toxicity ([3]; mice): without obvious toxicity
- T1/2 in plasma ([3]; plasma): 8.56 h
- effect on p-Smad2 levels (p-Smad2; HCFs not treated with TGF-β1, H2 relaxin 0.1 μM, ML290 1 μM): neither H2 relaxin (0.1 μM) nor ML290 (1 μM) significantly affected
- p-Smad2 in TGF-β1-stimulated cells (p-Smad2; HCFs, TGF-β1 2 ng/ml + H2 relaxin 0.1 μM or ML290 1 μM): 1.58 ± 0.34 fold/basal
- Emax (RXFP1 [4]; read-out: p-p38MAPK efficacy (Emax), HUASMC): 4.4%
- Emax (RXFP1 [4]; read-out: p-p38MAPK efficacy (Emax), HUVSMC): 2.7%
- Emax (RXFP1 [5]; 15 min, read-out: p-p38MAPK efficacy (Emax) (converted)): 16.9%
- p38MAPK phosphorylation, time course (RXFP1 [5]; up to 45 min, H2 relaxin 100 nM, ML290 100 nM or 10 μM): increased p38MAPK phosphorylation
- cAMP production with LDLa mutant receptors (LDLa mutant receptors): still activates cAMP production
